Patent US9193731B2, “Antimicrobial compounds and methods of making and using the same” (Melinta Therapeutics, Inc., priority 2009, dated 2015)

test system: Escherichia coli strain ATCC25922; assay: standard microdilution assay to determine minimum inhibitory concentrations (MICs); format: cell-based; conditions: Escherichia coli strain ATCC25922, microdilution
Protocol: Minimum inhibitory concentrations (MICs) are determined by the microdilution method, typically in a final volume of 100 microliters, according to protocols outlined by The Clinical and Laboratory Standards Institute [CLSI; formerly the National Committee for Clinical Laboratory Standards (NCCLS)]. See CLSI: Methods for dilution antimicrobial susceptibility tests for bacteria that grow aerobically; approved standard-fifth edition. Wayne, Pa.: NCCLS; 2000. The assays can be also be performed in microtiter trays according to conventional methodologies as published by the CLSI. See CLSI. Methods for Dilution Antimicrobial Susceptibility Tests for Bacteria That Grow Aerobically; Approved Standard—Seventh Edition. CLSI Document M7-A7 [ISBN 1-56238-587-9] CLSI, 940 West Valley Road, Suite 1400, Wayne Pa. 19087-1898 USA, 2006).
The compounds of the present invention were tested for antimicrobial activity. The compounds were run against Escherichia coli strain ATCC25922 using a standard microdilution assay to determine minimum inhibitory concentrations (MICs). […] A “N/A” means that data is unavailable. It will be recognized by one skilled in the art that the compounds can be assessed against other bacterial organisms and that the presentation of data for activity against Escherichia coli is illustrative and in no way is intended to limit the scope of the present invention. The compounds of the present invention can be assayed against a range of other microorganisms depending upon the performance activity desired to be gathered. Furthermore, the “+”, “−”, and “N/A” representation and the selection of a cutoff value of 16 micrograms/ml is also illustrative and in no way is intended to limit the scope of the present invention.

Row | SMILES | E. coli ATCC25922 MIC
1 | CNCc1ccc(-n2cc3cc(-c4ccc(S(=O)(=O)N(CC5CC5)C5CCNCC5)cc4)[nH]c3nc2=O)cc1 [Compound 936] | − (a “−” indicates that the compound has an MIC value greater than 16 micrograms/ml)
2 | N=C(N)NCCCNCc1ccc(-n2cc3cc(C4CCCN(Cc5cnc[nH]5)C4)[nH]c3nc2=O)cc1 (centres unmarked) [Compound 2003a] | − (a “−” indicates that the compound has an MIC value greater than 16 micrograms/ml)
3 | CS(=O)(=O)NCCc1cc(OCC(F)CN)cc(-c2cc3cn(-c4ccc(CNCCCNC(=N)N)cc4)c(=O)nc3[nH]2)c1 (centres unmarked) [Compound 2031a] | − (a “−” indicates that the compound has an MIC value greater than 16 micrograms/ml)
4 | NC1CCN(Cc2ccc(-n3cc4cc(-c5ccc(S(=O)(=O)N(CCCn6cnnc6)C6CCNCC6)cc5)[nH]c4nc3=O)cc2)C1 (centres unmarked) [Compound 1220] | − (a “−” indicates that the compound has an MIC value greater than 16 micrograms/ml)
5 | N=C(N)NCCC(NCc1ccc(-n2cc3cc(-c4ccc(S(=O)(=O)NC5CNC5)cc4)[nH]c3nc2=O)cc1)C(F)(F)F (centres unmarked) [Compound 1415] | + (a “+” indicates that the compound has an MIC value of 16 micrograms/ml or less)
6 | N=C(N)NCCCNCc1ccc(-n2cc3cc(-c4cc(CCN)cc(CCCCN)c4)[nH]c3nc2=O)cc1 [Compound 2062a] | + (a “+” indicates that the compound has an MIC value of 16 micrograms/ml or less)
7 | CC(=O)NCCCS(=O)(=O)c1ccc(-c2cc3cn(-c4ccc(CNCCCNC(=N)N)cc4)c(=O)nc3[nH]2)cc1 [Compound 1277] | − (a “−” indicates that the compound has an MIC value greater than 16 micrograms/ml)
8 | CN1CCN(CCOc2cc(-n3cc4cc(-c5ccc(S(=O)(=O)NC6CCNCC6)cc5)[nH]c4nc3=O)ccc2C(=O)NCCCNC(=N)N)CC1 [Compound 1152] | − (a “−” indicates that the compound has an MIC value greater than 16 micrograms/ml)
9 | N=C(N)NCCCNC(=O)c1ccc(-n2cc3cc(-c4ccc(S(=O)(=O)CCCNC5CCCOC5)cc4)[nH]c3nc2=O)cc1 (centres unmarked) [Compound 1284] | − (a “−” indicates that the compound has an MIC value greater than 16 micrograms/ml)
10 | Cn1c(CCCN(C2CCNCC2)S(=O)(=O)c2ccc(-c3cc4cn(-c5ccc(CNCCCNC(=N)N)cc5)c(=O)nc4[nH]3)cc2)nc2ccccc21 [Compound 841] | + (a “+” indicates that the compound has an MIC value of 16 micrograms/ml or less)
11 | N=C(N)NCCCNCc1ccc(-n2cc3cc(-c4cc(OC(F)(F)F)cc(SCCCN)c4)[nH]c3nc2=O)cc1 [Compound 2047a] | + (a “+” indicates that the compound has an MIC value of 16 micrograms/ml or less)
12 | N=C(N)NCCCNC(=O)c1ccc(-n2cc3cc(-c4cccc(OC[C@@H](O)CN)c4)[nH]c3nc2=O)cc1 [Compound 1399] | + (a “+” indicates that the compound has an MIC value of 16 micrograms/ml or less)
13 | N=C(N)NCC(O)CNCc1ccc(-n2cc3cc(-c4ccc(S(=O)(=O)NC5CN(C(=N)N)C5)cc4)[nH]c3nc2=O)cc1 (centres unmarked) [Compound 1417] | + (a “+” indicates that the compound has an MIC value of 16 micrograms/ml or less)
14 | N=C(N)NCCCNCc1ccc(-n2cc3cc(-c4cccc(S(=O)(=O)N(CCn5cccn5)C5CCNCC5)c4)[nH]c3nc2=O)cc1 [Compound 1176] | + (a “+” indicates that the compound has an MIC value of 16 micrograms/ml or less)
15 | N=C(N)NCCCNCc1ccc(-c2cn3cc(-c4ccc(S(=O)(=O)N5CCN(C(=O)OCc6ccccc6)CC5)cc4)[nH]c3nc2=O)cc1 [Compound 790] | + (a “+” indicates that the compound has an MIC value of 16 micrograms/ml or less)
16 | N=C(N)NCCCNCc1ccc(-n2cc3cc(CCS(=O)(=O)N(CCC4CCCN4)C4CCNCC4)[nH]c3nc2=O)cc1 (centres unmarked) [Compound 991] | + (a “+” indicates that the compound has an MIC value of 16 micrograms/ml or less)
17 | CC(CN)CN1CCC(c2cc3cn(-c4ccc(CNCCCN)cc4)c(=O)nc3[nH]2)C1 (centres unmarked) [Compound 2041a] | + (a “+” indicates that the compound has an MIC value of 16 micrograms/ml or less)
18 | N=C(N)NCCCNCc1ccc(-n2cc3cc(-c4cc(OCC(F)CN)cc(OC(F)(F)F)c4)[nH]c3nc2=O)cc1 (centres unmarked) [Compound 1463] | + (a “+” indicates that the compound has an MIC value of 16 micrograms/ml or less)
19 | N=C(N)NCCCNCc1ccc(-n2cc3cc(CCS(=O)(=O)N(CCCc4ccccc4F)C4CCNCC4)[nH]c3nc2=O)cc1 [Compound 992] | + (a “+” indicates that the compound has an MIC value of 16 micrograms/ml or less)
20 | N=C(N)NCCCNCc1ccc(-n2cc3cc(-c4cc(C(=O)NCCc5ccc(F)cc5)cc(N5CCNCC5)c4)[nH]c3nc2=O)cc1 [Compound 963] | + (a “+” indicates that the compound has an MIC value of 16 micrograms/ml or less)
21 | NC(=O)c1ccc(-n2cc3cc(-c4ccc(S(=O)(=O)N(Cc5cc(OC(F)(F)F)ccc5F)C5CCNCC5)cc4)[nH]c3nc2=O)cc1 [Compound 1115] | − (a “−” indicates that the compound has an MIC value greater than 16 micrograms/ml)

same assay, conditions: Escherichia coli, ATCC25922, Escherichia coli strain ATCC25922, microdilution; read-out: E. coli ATCC25922 MIC

Row | MIC | SMILES
22 | > 16 µg/mL | NCc1ccc(-n2cc3cc(-c4ccc(S(=O)(=O)NC5CCNCC5)c(Cl)c4)[nH]c3nc2=O)cc1F [Compound 272]
23 | > 16 µg/mL | NCc1ccc(-n2cc3cc(-c4cccc(S(=O)(=O)N(CCc5ccc(O)cc5)C5CCNCC5)c4)[nH]c3nc2=O)cc1 [Compound 1182]
24 | > 16 µg/mL | N=C(N)NCCCNCc1ccc(-n2cc3cc(CSc4n[nH]c(N)n4)[nH]c3nc2=O)cc1 [Compound 636]
25 | < 16 µg/mL | Cn1cncc1-c1cc2cn(-c3ccc(CN(CCCN)CCCN)cc3)c(=O)nc2[nH]1 [Compound 184]
26 | > 16 µg/mL | N=C(N)CCCOc1cccc(-c2cc3cn(-c4ccc(CN)cc4)c(=O)nc3[nH]2)c1 [Compound 1150]
27 | > 16 µg/mL | NCCCNCc1ccc(-n2cc3cc(COc4ccccc4)[nH]c3nc2=O)cc1 [Compound 626]
28 | > 16 µg/mL | CN(Cc1ccccc1)Cc1cc2cn(-c3ccc(CNCCCN)cc3)c(=O)nc2[nH]1 [Compound 905]
29 | > 16 µg/mL | N[C@H]1CCCN(Cc2ccc(-n3cc4cc[nH]c4nc3=O)cc2)C1 [Compound 1156]
30 | > 16 µg/mL | N=C(N)NCCCNCc1ccc(-n2cc3cc(C4CCCN(Cc5ncc[nH]5)C4)[nH]c3nc2=O)cc1 (centres unmarked) [Compound 2022a]
31 | > 16 µg/mL | N=C(N)NCCCCCc1ccc(-c2cn3cc(-c4ccc(Br)cc4)[nH]c3nc2=O)cc1 [Compound 885]
32 | < 16 µg/mL | NCCCNCc1ccc(-n2cc3cc(CCN[C@H]4CCCNC4)[nH]c3nc2=O)cc1 [Compound 816]
33 | < 16 µg/mL | NCCCN(CCCN)Cc1ccc(-n2cc3cc(-c4ccc(S(=O)(=O)N5CCN6CCC5CC6)c(F)c4)[nH]c3nc2=O)cc1 [Compound 231]
34 | < 16 µg/mL | N=C(N)NCCCNCc1ccc(-n2cc3cc(CCS(=O)(=O)NC4CCNCC4)[nH]c3nc2=O)cc1 [Compound 926]
35 | < 16 µg/mL | N=C(N)NCCCNCc1ccc(-n2cc3cc(C4CCCNC4)[nH]c3nc2=O)cc1 (centres unmarked) [Compound 1210]
36 | > 16 µg/mL | NCCCN1CCC(c2cn3cc(-c4ccc(F)cc4)[nH]c3nc2=O)CC1 [Compound 567]
37 | < 16 µg/mL | N=C(N)NCCCNCc1ccc(-n2cc3cc(-c4cccc(OCCCN)c4)[nH]c3nc2=O)cc1F [Compound 1263]
38 | < 16 µg/mL | N=C(N)NCCCNCc1ccc(-n2cc3cc(-c4ccc(S(=O)(=O)N(Cc5ccc(Cl)c(Cl)c5)C5CCNCC5)cc4)[nH]c3nc2=O)cc1 [Compound 725]
